The source of these data is patent US20200179428A1, “CYCLIC PHOSPHATE SUBSTITUTED NUCLEOSIDE DERIVATIVES AND METHODS OF USE THEREOF FOR THE TREATMENT OF VIRAL DISEASES” (priority 2016, published 2020).

Molecules are shown by their SMILES.

The subject of the first data set is replicon cells (1b-Con1). As to the kind of experiment: Replicon activity assay (replicon RNA level by real-time RT-PCR, Taqman). The note with it: HCV replicon genotype 1b; read-out: EC50 (1b) Range. In kind it is cell-based. As to the method:
(§1) To measure cell-based anti-HCV activity of the compounds of the present invention, replicon cells (1b-Con1) are seeded at 5000 cells/well in 96-well plates one day prior to treatment with a compound of the invention. Various concentrations of a test compound of the invention in DMSO are then added to the replicon cells, with the final concentration of DMSO at 0.5% and fetal bovine serum at 10% in the assay media. Cells are harvested three days post-dosing, and the replicon RNA level is determined using real-time RT-PCR (Taqman assay) with GAPDH RNA as endogenous control. EC50 values are calculated from experiments with 10 serial twofold dilutions of the inhibitor in triplicate. To measure cytotoxicity in replicon cells of an inhibitor, an MTS assay is performed according to the manufacturer's protocol for CellTiter 96 Aqueous One Solution Cell Proliferation Assay (Promega, Cat # G3580) three days post dosing on cells treated identically as in replicon activity assays. […] Cytotoxicity in other types of cells may be measured using the same MTS protocol.
With `C#C[C@]1(C)[C@@H]2OP(=O)(OCC(C)CC(=O)OC(C)C)OC[C@H]2O[C@H]1n1ccc(=O)[nH]c1=O` (single isomer, unassigned) [Compound 6A], the EC50 was 1 to 10 µM.

Staying with this data set, now noted: Hepatitis C virus, HCV replicon genotype 1b; read-out: EC50 (1b) Range.
Take `CC(C)OC(=O)CC(C)(C)CO[P@@]1(=O)OC[C@H]2O[C@@H](n3ccc(=O)[nH]c3=O)[C@](C)(N)[C@@H]2O1` [Compound 17A]: the EC50 was over 10 µM.

In the case of `C#C[C@]1(C)[C@@H]2O[P@@](=O)(OCCC(C)(C)C(=O)OC(C)C)OC[C@H]2O[C@H]1n1ccc(=O)[nH]c1=O` [Compound 20A], the EC50 was over 10 µM.

With `CC(=O)O[C@@H](CO[P@@]1(=O)OC[C@H]2O[C@@H](n3ccc(=O)[nH]c3=O)[C@](C)(N)[C@@H]2O1)[C@@H](OC(C)=O)C(=O)OC(C)C` [Compound 54A], the EC50 was over 10 µM.

As for `C#C[C@]1(C)[C@@H]2O[P@@](=O)(OCC[C@H](OC(C)=O)C(=O)OC(C)C)OC[C@H]2O[C@H]1n1ccc(=O)[nH]c1=O` [Compound 51A], the EC50 lay in the range of 1 to 10 µM.

Take `C#C[C@]1(C)[C@@H]2OP(=O)(OCCC(C)C(=O)OC(C)C)OC[C@H]2O[C@H]1n1ccc(=O)[nH]c1=O` (stereo partly drawn) [Compound 1A]: the EC50 fell in the range of 1 to 10 µM.

As for `CC(CCOP1(=O)OC[C@H]2O[C@@H](n3ccc(=O)[nH]c3=O)[C@](C)(N)[C@@H]2O1)C(=O)OC1CCCC1` (stereo partly drawn) [Compound 14A], the EC50 was over 10 µM.

As to `CC(C)OC(=O)C1CC1CO[P@@]1(=O)OC[C@H]2O[C@@H](n3ccc(=O)[nH]c3=O)[C@](C)(N)[C@@H]2O1` (stereo partly drawn) [Compound 47A], the EC50 is over 10 µM.

Regarding `C#C[C@]1(C)[C@@H]2O[P@](=O)(OCC[C@H](NC(=O)OC)C(=O)OC(C)C)OC[C@H]2O[C@H]1n1ccc(=O)[nH]c1=O` [Compound 43B], the EC50 is over 10 µM.

Regarding `CC(CCO[P@]1(=O)OC[C@H]2O[C@@H](n3ccc(=O)[nH]c3=O)[C@](C)(N)[C@@H]2O1)C(=O)OC1CCCCC1` (stereo partly drawn) [Compound 78B], the EC50 is 1 to 10 µM.

Turning to `CCC(CCO[P@]1(=O)OC[C@H]2O[C@@H](n3ccc(=O)[nH]c3=O)[C@](C)(N)[C@@H]2O1)C(=O)OC(C)C` (stereo partly drawn) [Compound 23B], the EC50 was over 10 µM.

As for `C#C[C@]1(C)[C@@H]2O[P@](=O)(OC[C@@H](CC(=O)OC(C)C)OC)OC[C@H]2O[C@H]1n1ccc(=O)[nH]c1=O` [Compound 62B], the EC50 was over 10 µM.

Turning to `CC(C)OC(=O)C[C@@H](F)CO[P@@]1(=O)OC[C@H]2O[C@@H](n3ccc(=O)[nH]c3=O)[C@](C)(N)[C@@H]2O1` [Compound 67A], the EC50 was over 10 µM.

As to `CC(C)OC(=O)C(C)CCOP1(=O)OC[C@H]2O[C@@H](n3cnc4c(N)ncnc43)[C@](C)(Cl)[C@@H]2O1` (single isomer, unassigned) [Compound 35A1], the EC50 was at most 0.25 µM.

`C#C[C@]1(C)[C@@H]2O[P@@](=O)(OCC[C@@H](OC(C)=O)C(=O)OC(C)C)OC[C@H]2O[C@H]1n1ccc(=O)[nH]c1=O` [Compound 50A]: the EC50 was over 10 µM.

Test system in another data set: not listed separately
As to the kind of experiment: Cytotoxicity MTS assay (CellTiter 96 Aqueous One Solution) in replicon cells. It is filed as cell-based. The note with it: EDU; read-out: CC50 (EDU) Range. As for the experimental part: as §1
Take `C#C[C@]1(C)[C@@H]2OP(=O)(OCCC(C)C(=O)OC(C)C)OC[C@H]2O[C@H]1n1ccc(=O)[nH]c1=O` (stereo partly drawn) [Compound 1A]: the CC50 was over 50 µM.

The data set is the same for the next values; noted with them: HCV replicon cells (1b-Con1); EDU; read-out: CC50 (EDU) Range.
As to `CC(C)OC(=O)CC(C)(C)CO[P@@]1(=O)OC[C@H]2O[C@@H](n3ccc(=O)[nH]c3=O)[C@](C)(N)[C@@H]2O1` [Compound 17A], the CC50 at 3 days is over 50 µM.

As to `C#C[C@]1(C)[C@@H]2O[P@@](=O)(OCCC(C)(C)C(=O)OC(C)C)OC[C@H]2O[C@H]1n1ccc(=O)[nH]c1=O` [Compound 20A], the CC50 at 3 days was over 50 µM.

Turning to `CC(=O)O[C@@H](CO[P@@]1(=O)OC[C@H]2O[C@@H](n3ccc(=O)[nH]c3=O)[C@](C)(N)[C@@H]2O1)[C@@H](OC(C)=O)C(=O)OC(C)C` [Compound 54A], the CC50 at 3 days was over 50 µM.

As for `C#C[C@]1(C)[C@@H]2O[P@@](=O)(OCC[C@H](OC(C)=O)C(=O)OC(C)C)OC[C@H]2O[C@H]1n1ccc(=O)[nH]c1=O` [Compound 51A], the CC50 at 3 days was over 50 µM.

Turning to `CC(CCOP1(=O)OC[C@H]2O[C@@H](n3ccc(=O)[nH]c3=O)[C@](C)(N)[C@@H]2O1)C(=O)OC1CCCC1` (stereo partly drawn) [Compound 14A], the CC50 at 3 days was over 50 µM.

Take `CC(C)OC(=O)C1CC1CO[P@@]1(=O)OC[C@H]2O[C@@H](n3ccc(=O)[nH]c3=O)[C@](C)(N)[C@@H]2O1` (stereo partly drawn) [Compound 47A]: the CC50 at 3 days is over 50 µM.

Regarding `C#C[C@]1(C)[C@@H]2O[P@](=O)(OCC[C@H](NC(=O)OC)C(=O)OC(C)C)OC[C@H]2O[C@H]1n1ccc(=O)[nH]c1=O` [Compound 43B], the CC50 at 3 days is over 50 µM.

`CC(CCO[P@]1(=O)OC[C@H]2O[C@@H](n3ccc(=O)[nH]c3=O)[C@](C)(N)[C@@H]2O1)C(=O)OC1CCCCC1` (stereo partly drawn) [Compound 78B]: the CC50 at 3 days is over 50 µM.

Consider `CCC(CCO[P@]1(=O)OC[C@H]2O[C@@H](n3ccc(=O)[nH]c3=O)[C@](C)(N)[C@@H]2O1)C(=O)OC(C)C` (stereo partly drawn) [Compound 23B], for which the CC50 at 3 days was over 50 µM.

Take `C#C[C@]1(C)[C@@H]2O[P@](=O)(OC[C@@H](CC(=O)OC(C)C)OC)OC[C@H]2O[C@H]1n1ccc(=O)[nH]c1=O` [Compound 62B]: the CC50 at 3 days was over 50 µM.

Take `CC(C)OC(=O)C[C@@H](F)CO[P@@]1(=O)OC[C@H]2O[C@@H](n3ccc(=O)[nH]c3=O)[C@](C)(N)[C@@H]2O1` [Compound 67A]: the CC50 at 3 days was over 50 µM.

As for `CC(C)OC(=O)C(C)CCOP1(=O)OC[C@H]2O[C@@H](n3cnc4c(N)ncnc43)[C@](C)(Cl)[C@@H]2O1` (single isomer, unassigned) [Compound 35A1], the CC50 at 3 days is over 50 µM.

Consider `C#C[C@]1(C)[C@@H]2O[P@@](=O)(OCC[C@@H](OC(C)=O)C(=O)OC(C)C)OC[C@H]2O[C@H]1n1ccc(=O)[nH]c1=O` [Compound 50A], for which the CC50 at 3 days was over 50 µM.

With `C#C[C@]1(C)[C@@H]2OP(=O)(OCC(C)CC(=O)OC(C)C)OC[C@H]2O[C@H]1n1ccc(=O)[nH]c1=O` (single isomer, unassigned) [Compound 6A], the CC50 at 3 days was over 50 µM.

As usually defined, the EC50 is the midpoint of the concentration-response curve. As usually defined, the CC50 is the concentration at which the toxic effect on the cells reaches its halfway point.
